In ChEMBL document CHEMBL1649297, “Mutations in ribosomal protein L3 are associated with oxazolidinone resistance in staphylococci of clinical origin” (2009):
≈ marks a conversion by molar mass, not a printed value.

Columns and labels:
Format in all cases: functional
[1] = tested on: Staphylococcus epidermidis; assay: Antibacterial activity against Staphylococcus epidermidis 1653059 harboring rplC G469A/C470G, L3 Ala157Arg and 23S rRNA G2447T mutant by CLSI broth microdilution assay
[2] = tested on: Staphylococcus epidermidis; assay: Antibacterial activity against […] Staphylococcus epidermidis ATCC 12228 by CLSI broth microdilution assay
Staphylococcus aureus [3] = assay: Antibacterial activity against methicillin-susceptible Staphylococcus aureus ATCC 29213 by CLSI broth microdilution assay
Staphylococcus aureus [4] = assay: Antibacterial activity against Staphylococcus aureus NARSA NRS127 harboring rplC T433 to T435 and L3 Ser145 deletion mutant by CLSI broth microdilution assay

Cn1nnc(-c2ccc(-c3ccc(N4C[C@H](CO)OC4=O)cc3F)cn2)n1 [TEDIZOLID]
MIC [1]: 16 µg/mL (≈ 43.2 µM) | MIC [2]: 0.25 µg/mL (≈ 0.675 µM) | MIC (Staphylococcus aureus [3]): 0.5 µg/mL (≈ 1.35 µM) | MIC (Staphylococcus aureus [4]): 1 µg/mL (≈ 2.7 µM)

CC(=O)NC[C@H]1CN(c2ccc(N3CCOCC3)c(F)c2)C(=O)O1 [LINEZOLID]
MIC [1]: 256 µg/mL (≈ 759 µM) | MIC [2]: 1 µg/mL (≈ 2.96 µM) | MIC (Staphylococcus aureus [4]): 8 µg/mL (≈ 23.7 µM)

O=C(N[C@H](CO)[C@H](O)c1ccc([N+](=O)[O-])cc1)C(Cl)Cl [CHLORAMPHENICOL]
MIC [1]: 2 µg/mL (≈ 6.19 µM) | MIC [2]: 1 µg/mL (≈ 3.09 µM) | MIC (Staphylococcus aureus [3]): 8 µg/mL (≈ 24.8 µM) | MIC (Staphylococcus aureus [4]): 8 µg/mL (≈ 24.8 µM)

C=C[C@]1(C)C[C@@H](OC(=O)CSCCN(CC)CC)[C@]2(C)[C@H](C)CC[C@]3(CCC(=O)[C@H]32)[C@@H](C)[C@@H]1O [TIAMULIN]
MIC [1]: 8 µg/mL (≈ 16.2 µM) | MIC [2]: 0.5 µg/mL (≈ 1.01 µM) | MIC (Staphylococcus aureus [3]): 1 µg/mL (≈ 2.03 µM) | MIC (Staphylococcus aureus [4]): 4 µg/mL (≈ 8.1 µM)
